Laboratory results published in article PMC5618621, “Non-Clinical Studies for Evaluation of 8-C-Rhamnosyl Apigenin Purified from Peperomia obtusifolia against Acute Edema” (International Journal of Molecular Sciences, 2017).

Target: T1, cytosolic phospholipase A2 (cPLA2) (Homo sapiens, UniProt P47712)
T1 construct: gene PLA2G4A
T1 sequence (P47712 1-749): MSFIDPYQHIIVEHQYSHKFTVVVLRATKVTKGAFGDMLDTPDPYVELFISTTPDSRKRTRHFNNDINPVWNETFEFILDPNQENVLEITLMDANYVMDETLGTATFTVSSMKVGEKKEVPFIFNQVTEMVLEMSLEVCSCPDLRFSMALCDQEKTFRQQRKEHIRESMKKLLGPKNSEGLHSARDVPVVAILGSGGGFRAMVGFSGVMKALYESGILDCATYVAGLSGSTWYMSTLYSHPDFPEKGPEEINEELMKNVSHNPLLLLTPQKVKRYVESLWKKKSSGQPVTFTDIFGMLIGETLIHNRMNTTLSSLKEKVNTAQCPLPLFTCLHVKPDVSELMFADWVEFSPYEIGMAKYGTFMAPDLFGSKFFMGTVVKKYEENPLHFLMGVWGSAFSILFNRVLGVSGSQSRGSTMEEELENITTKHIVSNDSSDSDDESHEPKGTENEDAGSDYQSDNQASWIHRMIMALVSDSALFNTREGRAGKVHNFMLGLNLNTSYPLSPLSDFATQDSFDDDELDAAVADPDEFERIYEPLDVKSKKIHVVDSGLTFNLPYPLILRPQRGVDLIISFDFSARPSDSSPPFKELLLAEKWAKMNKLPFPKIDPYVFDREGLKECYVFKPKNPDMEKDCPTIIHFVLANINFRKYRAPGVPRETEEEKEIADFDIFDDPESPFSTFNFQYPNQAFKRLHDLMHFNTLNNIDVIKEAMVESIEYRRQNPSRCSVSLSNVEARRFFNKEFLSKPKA
Assay: recombinant cPLA2 enzymatic assay (Cayman cPLA2 assay kit)
Type: biochemical

IC50: 134 µM
SMILES: C[C@@H]1OC(c2c(O)cc(O)c3c(=O)cc(-c4ccc(O)cc4)oc23)[C@H](O)[C@H](O)[C@H]1O (stereo partly shown) [8CR, 8-C-rhamnosyl apigenin]
